Test results: the NIST ThermoML archive (doi:10.1021/je8004112)

What was measured:
[1] = Ring tensiometer
[2] = xn = mol fraction of the nth substance listed; settings: Ring tensiometer

C1CCCCC1 [cyclohexane]
[1]
Settings | surface tension liquid-gas [mN/m]
293.15 K | 25.06
298.15 K | 24.45
303.15 K | 23.87
308.15 K | 23.21
313.15 K | 22.71
318.15 K | 22.05
323.15 K | 21.45

C1CCCCC1 [cyclohexane] + OC1CCCCC1
[2], x1 = 1
Settings | surface tension liquid-gas [mN/m]
293.15 K | 25.06
298.15 K | 24.45
303.15 K | 23.87
308.15 K | 23.21
313.15 K | 22.71
318.15 K | 22.05
323.15 K | 21.45

OC1CCCCC1 [cyclohexanol]
[1]
Settings | surface tension liquid-gas [mN/m]
293.15 K | 33.15
298.15 K | 32.74
303.15 K | 32.35
308.15 K | 31.91
313.15 K | 31.58
318.15 K | 31.13
323.15 K | 30.78

OC1CCCCC1 [cyclohexanol] + C1CCCCC1
surface tension liquid-gas [mN/m], [2]
Settings | x2 = 0 | x2 = 0.005 | x2 = 0.009 | x2 = 0.013 | x2 = 0.023 | x2 = 0.031 | x2 = 0.044 | x2 = 0.07
293.15 K | 33.15 | 31.44 | 30.93 | 30.73 | 30.42 | 30.26 | 30.12 | 29.62
298.15 K | 32.74 | 31 | 30.54 | 30.32 | 29.99 | 29.8 | 29.62 | 29.15
303.15 K | 32.35 | 30.55 | 30.17 | 29.88 | 29.57 | 29.38 | 29.16 | 28.65
308.15 K | 31.91 | 30.12 | 29.77 | 29.49 | 29.15 | 28.93 | 28.65 | 28.18
313.15 K | 31.58 | 29.73 | 29.4 | 29.06 | 28.76 | 28.48 | 28.26 | 27.75
318.15 K | 31.13 | 29.26 | 29 | 28.67 | 28.34 | 28.07 | 27.78 | 27.27
323.15 K | 30.78 | 28.88 | 28.63 | 28.3 | 27.91 | 27.66 | 27.35 | 26.82

OC1CCCCC1 [cyclohexanol] + CCCCCC
surface tension liquid-gas [mN/m], [2]
Settings | x2 = 0 | x2 = 0.007 | x2 = 0.009 | x2 = 0.012 | x2 = 0.021 | x2 = 0.03 | x2 = 0.042 | x2 = 0.075
293.15 K | 33.15 | 31.87 | 31.64 | 31.5 | 31.11 | 30.5 | 30 | 28.85
298.15 K | 32.74 | 31.5 | 31.31 | 31.08 | 30.71 | 30.07 | 29.59 | 28.42
303.15 K | 32.35 | 31.13 | 30.96 | 30.7 | 30.33 | 29.67 | 29.15 | 27.96
308.15 K | 31.91 | 30.77 | 30.64 | 30.26 | 29.96 | 29.26 | 28.74 | 27.5
313.15 K | 31.58 | 30.42 | 30.31 | 29.88 | 29.55 | 28.85 | 28.33 | 27.06

OC1CCCCC1 [cyclohexanol] + CCCCCCC
surface tension liquid-gas [mN/m], [2]
Settings | x2 = 0 | x2 = 0.011 | x2 = 0.014 | x2 = 0.02 | x2 = 0.025 | x2 = 0.033 | x2 = 0.037 | x2 = 0.061
293.15 K | 33.15 | 32.84 | 32.69 | 32.56 | 31.8 | 31.53 | 31.38 | 29.87
298.15 K | 32.74 | 32.47 | 32.29 | 32.2 | 31.48 | 31.17 | 31.01 | 29.54
303.15 K | 32.35 | 32.11 | 31.92 | 31.8 | 31.08 | 30.82 | 30.56 | 29.2
308.15 K | 31.91 | 31.78 | 31.55 | 31.39 | 30.74 | 30.44 | 30.14 | 28.83
313.15 K | 31.58 | 31.43 | 31.23 | 31.01 | 30.41 | 30.1 | 29.77 | 28.54
318.15 K | 31.13 | 31.07 | 30.85 | 30.57 | 30.07 | 29.76 | 29.39 | 28.23
323.15 K | 30.78 | 30.7 | 30.45 | 30.16 | 29.7 | 29.43 | 28.99 | 27.87

OC1CCCCC1 [cyclohexanol] + CCCCCCCCC
surface tension liquid-gas [mN/m], [2]
Settings | x2 = 0 | x2 = 0.003 | x2 = 0.006 | x2 = 0.008 | x2 = 0.012 | x2 = 0.022 | x2 = 0.041 | x2 = 0.06
293.15 K | 33.15 | 32.91 | 32.7 | 32.65 | 32.24 | 31.79 | 30.67 | 29.88
298.15 K | 32.74 | 32.51 | 32.3 | 32.22 | 31.85 | 31.44 | 30.3 | 29.48
303.15 K | 32.35 | 32.11 | 31.84 | 31.78 | 31.49 | 31.09 | 29.91 | 29.11
308.15 K | 31.91 | 31.72 | 31.44 | 31.35 | 31.09 | 30.72 | 29.52 | 28.72
313.15 K | 31.58 | 31.36 | 31.08 | 30.94 | 30.75 | 30.38 | 29.17 | 28.37
318.15 K | 31.13 | 30.99 | 30.69 | 30.52 | 30.41 | 29.99 | 28.8 | 27.98
323.15 K | 30.78 | 30.54 | 30.3 | 30.07 | 30.02 | 29.62 | 28.41 | 27.56

OC1CCCCC1 [cyclohexanol] + CCCCCCCCCCCC
surface tension liquid-gas [mN/m], [2]
Settings | x2 = 0 | x2 = 0.006 | x2 = 0.009 | x2 = 0.011 | x2 = 0.022 | x2 = 0.031 | x2 = 0.046 | x2 = 0.075
293.15 K | 33.15 | 31.7 | 31.11 | 30.68 | 30.22 | 29.81 | 29.14 | 27.16
298.15 K | 32.74 | 31.23 | 30.71 | 30.32 | 29.85 | 29.37 | 28.74 | 26.8
303.15 K | 32.35 | 30.78 | 30.28 | 29.99 | 29.46 | 28.87 | 28.35 | 26.47
308.15 K | 31.91 | 30.35 | 29.88 | 29.61 | 29.08 | 28.44 | 27.98 | 26.1
313.15 K | 31.58 | 29.92 | 29.49 | 29.25 | 28.72 | 28.01 | 27.58 | 25.76
318.15 K | 31.13 | 29.49 | 29.07 | 28.88 | 28.35 | 27.57 | 27.21 | 25.44
323.15 K | 30.78 | 29 | 28.69 | 28.5 | 27.99 | 27.13 | 26.83 | 25.09

CCCCCCCCCCCC [dodecane]
[1]
Settings | surface tension liquid-gas [mN/m]
293.15 K | 24.28
298.15 K | 23.84
303.15 K | 23.38
308.15 K | 22.98
313.15 K | 22.56
318.15 K | 22.14
323.15 K | 21.71

CCCCCCCCCCCC [dodecane] + OC1CCCCC1
[2], x1 = 1
Settings | surface tension liquid-gas [mN/m]
293.15 K | 24.28
298.15 K | 23.84
303.15 K | 23.38
308.15 K | 22.98
313.15 K | 22.56
318.15 K | 22.14
323.15 K | 21.71

CCCCCCC [heptane]
[1]
Settings | surface tension liquid-gas [mN/m]
293.15 K | 20.05
298.15 K | 19.54
303.15 K | 19.1
308.15 K | 18.58
313.15 K | 18.08
318.15 K | 17.6
323.15 K | 17.06

CCCCCCC [heptane] + OC1CCCCC1
[2], x1 = 1
Settings | surface tension liquid-gas [mN/m]
293.15 K | 20.05
298.15 K | 19.54
303.15 K | 19.1
308.15 K | 18.58
313.15 K | 18.08
318.15 K | 17.6
323.15 K | 17.06

CCCCCC [hexane]
[1]
Settings | surface tension liquid-gas [mN/m]
293.15 K | 18.56
298.15 K | 18.03
303.15 K | 17.44
308.15 K | 16.92
313.15 K | 16.38

CCCCCC [hexane] + OC1CCCCC1
[2], x1 = 1
Settings | surface tension liquid-gas [mN/m]
293.15 K | 18.56
298.15 K | 18.03
303.15 K | 17.44
308.15 K | 16.92
313.15 K | 16.38

CCCCCCCCC [nonane]
[1]
Settings | surface tension liquid-gas [mN/m]
293.15 K | 23.04
298.15 K | 22.49
303.15 K | 22.04
308.15 K | 21.49
313.15 K | 20.94
318.15 K | 20.47
323.15 K | 19.98

CCCCCCCCC [nonane] + OC1CCCCC1
[2], x1 = 1
Settings | surface tension liquid-gas [mN/m]
293.15 K | 23.04
298.15 K | 22.49
303.15 K | 22.04
308.15 K | 21.49
313.15 K | 20.94
318.15 K | 20.47
323.15 K | 19.98
